Laboratory results from US20150080329A1, “PHARMACEUTICAL COMPOSITIONS COMPRISING DHA, EPA, AND/OR GLA AND AN ANTIBIOTIC AGENT AND METHODS OF USE THEREOF” (priority 2013, published 2015).
≈ marks a conversion by molar mass, not a printed value. Like-named read-outs stand apart in the source and are kept apart here.

Key:
Assay type in all cases: cell-based
P. acnes NCTC737 = experiment: MIC and MBC determination by broth micro-dilution against P. acnes
S. aureus ATCC43300 = experiment: MIC and MBC determination by broth micro-dilution against S. aureus
S. aureus = experiment: Checkerboard assay of interactions between LC-PUFAs and topical antimicrobial agents; settings: n = 2, mean ± one standard deviation
Experimental: Checkerboard assays were performed according to the standard protocol published by the American Society for Microbiology to investigate the existence of synergistic antimicrobial interactions between the three LC-PUFAs and two anti-acne agents (BPO and SA) against P. acnes. Further checkerboards were performed against S. aureus for BPO, SA and four antibiotics used to treat topical staphylococcal infections (FUS, MUP, NEO and POL) with these agents being assessed separately against each of the three LC-PUFAs. Doubling dilutions of each compound were prepared in TSA or SBB and dispensed to 96-well plates in the standard checkerboard pattern. […] Control wells were dispensed with medium supplemented with the greatest concentration of solvent used in any well, while negative control wells contained just medium. Inoculums were prepared to 1×10^7 CFU/mL as above. Each well (except for negative controls) was inoculated with 5 μL of bacterial suspension. Plates were incubated as for MIC determinations above and then the presence of bacterial growth was determined for each well according to the clarity of the medium and/or the presence of suspended colonies. The FIC for each well was determined for each interaction and the lowest FICs from duplicate checkerboard assays were used to calculate a mean value that permitted interpretation of the nature of interaction between each combination of compounds Using the pre-determined MIC values, checkerboard assays were performed to detect the interactions between the LC-PUFAs and the clinical antimicrobial drugs against the growth of S. aureus. The lowest fractional inhibitory concentration (FIC) on duplicate checkerboards was used to calculate a mean FIC for each interaction, and a mean FIC ≦0.5 was defined as synergy while a mean FIC ≧4 was defined as antagonism. Against S. aureus, none of the combinations gave a mean FIC ≧4, indicating no antagonism of efficacy between the LC-PUFAs and the clinical antimicrobial agents (Table 4). […] (Table 4)

[1] = tested on: ten diverse isolates of S. aureus; experiment: MIC50 and MBC50 against ten diverse isolates of S. aureus; settings: Staphylococcus aureus; for MIC50: concentration required to inhibit 50% of ten S. aureus isolates; for MBC: concentration required to kill 50% of ten S. aureus isolates
[2] = Cutibacterium acnes, P. acnes NCTC737, kills ≧99.9% of initial inoculum, LC-PUFAs (Table 1), read-out: MBC
[3] = Cutibacterium acnes, P. acnes NCTC737, supplemented brucella broth, 48 h, LC-PUFAs (Table 1), read-out: MIC
[4] = Staphylococcus aureus, S. aureus ATCC43300, Mueller-Hinton broth, 18-20 h, LC-PUFAs (Table 1), read-out: MIC
[5] = Staphylococcus aureus, S. aureus ATCC43300, kills ≧99.9% of initial inoculum, LC-PUFAs (Table 1), read-out: MBC
[6] = S. aureus, clinical antimicrobial agents (Table 3)
[7] = P. acnes, clinical antimicrobial agents (Table 3)

O=C(OOC(=O)c1ccccc1)c1ccccc1 [BPO, benzoyl peroxide]
MBC (P. acnes NCTC737; Cutibacterium acnes, NCTC737, P. acnes, clinical antimicrobial agents (Table 3), read-out: MBC): > 4100 µg/mL
MIC (P. acnes NCTC737; Cutibacterium acnes, NCTC737, P. acnes, clinical antimicrobial agents (Table 3), read-out: MIC): 64 µg/mL (≈ 264 µM)
MBC (S. aureus ATCC43300; Staphylococcus aureus, ATCC43300, S. aureus, clinical antimicrobial agents (Table 3), read-out: MBC): 512 mg/L (≈ 2110 µM)
MIC (S. aureus ATCC43300; Staphylococcus aureus, ATCC43300, S. aureus, clinical antimicrobial agents (Table 3), read-out: MIC): 512 mg/L (≈ 2110 µM)
ΣFIC (S. aureus; in combination with DHA): 2.00 ± 0.00
ΣFIC (S. aureus; in combination with EPA): 1.00 ± 0.00
ΣFIC (S. aureus; in combination with GLA): 0.56 ± 0.09

CC/C=C\C/C=C\C/C=C\C/C=C\C/C=C\C/C=C\CCC(=O)O [DHA, (4Z,7Z,10Z,13Z,16Z,19Z)-docosa-4,7,10,13,16,19-hexaenoic acid]
MBC (P. acnes NCTC737; [2]): > 4100 µg/mL
MIC (P. acnes NCTC737; [3]): 32 µg/mL (≈ 97.4 µM)
MIC (S. aureus ATCC43300; [4]): 128 mg/L (≈ 390 µM)
MBC (S. aureus ATCC43300; [5]): 128 mg/L (≈ 390 µM)
MIC50 [1]: 128 µg/mL (≈ 390 µM)
MBC [1]: 256 µg/mL (≈ 779 µM)

CC/C=C\C/C=C\C/C=C\C/C=C\C/C=C\CCCC(=O)O [EPA, all-cis-5,8,11,14,17-eicosapentaenoic acid]
MBC (P. acnes NCTC737; [2]): > 4100 µg/mL
MIC (P. acnes NCTC737; [3]): 128 µg/mL (≈ 423 µM)
MIC (S. aureus ATCC43300; [4]): 128 mg/L (≈ 423 µM)
MBC (S. aureus ATCC43300; [5]): 256 mg/L (≈ 846 µM)
MIC50 [1]: 256 µg/mL (≈ 846 µM)
MBC [1]: 256 µg/mL (≈ 846 µM)

CC(=O)O[C@H]1C[C@@]2(C)[C@@H](C[C@@H](O)[C@H]3[C@@]4(C)CC[C@@H](O)[C@@H](C)[C@@H]4CC[C@@]32C)/C1=C(\CCC=C(C)C)C(=O)O [FUS]
MBC (S. aureus ATCC43300; [6]): 8 mg/L (≈ 15.5 µM)
MIC (S. aureus ATCC43300; [6]): 0.25 mg/L (≈ 0.484 µM)
ΣFIC (S. aureus; in combination with DHA): 2.00 ± 0.00
ΣFIC (S. aureus; in combination with EPA): 1.13 ± 0.18
ΣFIC (S. aureus; in combination with GLA): 1.50 ± 0.71

CCCCC/C=C\C/C=C\C/C=C\CCCCC(=O)O [GLA, all-cis-6,9,12-octadecatrienoic acid]
MBC (P. acnes NCTC737; [2]): > 4100 µg/mL
MIC (P. acnes NCTC737; [3]): 64 µg/mL (≈ 230 µM)
MIC (S. aureus ATCC43300; [4]): 512 mg/L (≈ 1840 µM)
MBC (S. aureus ATCC43300; [5]): 512 mg/L (≈ 1840 µM)
MIC50 [1]: 512 µg/mL (≈ 1840 µM)
MBC [1]: 512 µg/mL (≈ 1840 µM)

C/C(=C\C(=O)OCCCCCCCCC(=O)O)C[C@@H]1OC[C@H](C[C@@H]2O[C@H]2[C@@H](C)[C@H](C)O)[C@@H](O)[C@H]1O [MUP]
MBC (S. aureus ATCC43300; [6]): 16 mg/L (≈ 32 µM)
MIC (S. aureus ATCC43300; [6]): 0.25 mg/L (≈ 0.499 µM)
ΣFIC (S. aureus; in combination with DHA): 1.50 ± 0.00
ΣFIC (S. aureus; in combination with EPA): 2.00 ± 0.00
ΣFIC (S. aureus; in combination with GLA): 2.25 ± 0.35

NC[C@@H]1O[C@H](O[C@H]2[C@@H](O)[C@H](O[C@@H]3[C@@H](O)[C@H](N)C[C@H](N)[C@H]3O[C@H]3O[C@H](CN)[C@@H](O)[C@H](O)[C@H]3N)O[C@@H]2CO)[C@H](N)[C@@H](O)[C@@H]1O [NEO, neomycin]
MBC (S. aureus ATCC43300; [6]): 128 mg/L (≈ 208 µM)
MIC (S. aureus ATCC43300; [6]): 32 mg/L (≈ 52.1 µM)
ΣFIC (S. aureus; in combination with DHA): 0.56 ± 0.09
ΣFIC (S. aureus; in combination with EPA): 0.38 ± 0.00
ΣFIC (S. aureus; in combination with GLA): 0.19 ± 0.00

O=C(O)c1ccccc1O [SA]
MBC (P. acnes NCTC737; [7]): >4096 µg/mL
MIC (P. acnes NCTC737; [7]): 64 µg/mL (≈ 463 µM)
MBC (S. aureus ATCC43300; [6]): 2048 mg/L (≈ 14800 µM)
MIC (S. aureus ATCC43300; [6]): 1024 mg/L (≈ 7410 µM)
ΣFIC (S. aureus; in combination with DHA): 1.25 ± 0.35
ΣFIC (S. aureus; in combination with EPA): 0.88 ± 0.18
ΣFIC (S. aureus; in combination with GLA): 0.88 ± 0.18

polymyxin B
MBC (S. aureus ATCC43300; [6]): 128 mg/L
MIC (S. aureus ATCC43300; [6]): 16 mg/L
ΣFIC (S. aureus; in combination with DHA): 2.00 ± 0.00
ΣFIC (S. aureus; in combination with EPA): 2.00 ± 0.00
ΣFIC (S. aureus; in combination with GLA): 1.06 ± 0.62
